Experiment [1] addresses T1, IDO (Homo sapiens (Human), UniProt P14902). The experiment in a line: LLE_IDO_ABS_DR (IDO assay, method not described).
The target of experiment [2] is T1, IDO. The experiment in a line: Kynurenine assay in IFN-γ-stimulated Hela cells. In kind it is cell-based. Conditions: 20 h, read-out: Hela Kyurenine (IC50). Put shortly: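 Hela cells adhered 5-6 h, then received inhibitor (top dose 30 μM, 3-fold dilutions to 1.5 nM) plus 100 ng/mL human IFN-γ to induce IDO, 20 h at 37° C. TCA added, 30 min at 50° C hydrolyses N-formylkynurenine to kynurenine. Supernatant mixed with Ehrlich reagent, 10 min RT, absorbance 490 nm.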

T1 sequence (P14902 whole entry): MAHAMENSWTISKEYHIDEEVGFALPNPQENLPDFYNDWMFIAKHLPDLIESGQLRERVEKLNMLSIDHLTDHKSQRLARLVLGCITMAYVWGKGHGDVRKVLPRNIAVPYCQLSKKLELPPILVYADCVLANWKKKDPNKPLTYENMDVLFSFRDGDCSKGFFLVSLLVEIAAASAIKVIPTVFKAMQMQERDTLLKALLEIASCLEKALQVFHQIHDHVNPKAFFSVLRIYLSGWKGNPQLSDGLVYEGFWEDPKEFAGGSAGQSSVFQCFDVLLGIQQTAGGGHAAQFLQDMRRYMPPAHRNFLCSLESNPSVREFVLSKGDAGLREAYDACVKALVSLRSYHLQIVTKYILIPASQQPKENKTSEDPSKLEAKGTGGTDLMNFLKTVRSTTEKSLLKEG

In general, IC50 refers to the concentration needed to halve the response being measured. As to `COc1ccc(-c2ccc(Oc3cccc(C(C)(C)C)c3)c(NC(=O)Nc3cccc(C)c3)c2)cc1C(=O)O` [Example 112, 4′-(3-tert-butylphenoxy)-4-methoxy-3′-(3-m-tolylureido)biphenyl-3-carboxylic acid], the concentration for half-maximal inhibition (IC50) in experiment [1] turned out to be 1050 nM; in experiment [2] it was 370 nM.

With `CCCNC(=O)Nc1cc(-c2ccc(OC)c(C(=O)O)c2)ccc1Oc1cccc2c1CCCC2` [Example 118, 4-methoxy-3′-(3-propylureido)-4′-(5,6,7,8-tetrahydronaphthalen-1-yloxy)biphenyl-3-carboxylic acid], the IC50 in experiment [1] amounted to 1060 nM; in experiment [2], 920 nM.

Regarding `COc1ccc(-c2ccc(Oc3cccc(C)c3C)c(NC(=O)Nc3ccccc3C)c2)cc1C(=O)O` [Example 121, 4′-(2,3-dimethylphenoxy)-4-methoxy-3′-(3-o-tolylureido)biphenyl-3-carboxylic acid], the values for the concentration for half-maximal inhibition (IC50) in experiment [1] and in experiment [2] were 390 nM and 110 nM, respectively.

For the molecule `COc1ccc(-c2ccc(Oc3ccccc3C3CC3)c(NC(=O)Nc3ccccc3Cl)c2)cc1C(=O)O` [Example 124, 3′-(3-(2-chlorophenyl)ureido)-4′-(2-cyclopropylphenoxy)-4-methoxybiphenyl-3-carboxylic acid], the 50% inhibitory concentration (IC50) in experiment [1] is 820 nM; in experiment [2] it was 140 nM.

Consider `COc1ccc(-c2ccc(Oc3ccccc3C3CC3)c(NC(=O)Nc3ccccc3C)c2)cc1C(=O)O` [Example 125, 4′-(2-cyclopropylphenoxy)-4-methoxy-3′-(3-o-tolylureido)biphenyl-3-carboxylic acid], for which the IC50 in experiment [1] turned out to be 730 nM; in experiment [2] it was 170 nM.

Turning to `COc1ccc(-c2ccc(Oc3ccccc3C3CC3)c(NC(=O)Nc3cccc(C)c3)c2)cc1C(=O)O` [Example 126, 4′-(2-cyclopropylphenoxy)-4-methoxy-3′-(3-m-tolylureido)biphenyl-3-carboxylic acid], the concentration for half-maximal inhibition (IC50) was determined as 760 nM in experiment [1] and 190 nM in experiment [2].

Turning to `COc1ccc(-c2ccc(Oc3cccc4ccccc34)c(NC(=O)Nc3ccccc3Cl)c2)cc1C(=O)O` [Example 128, 3′-(3-(2-chlorophenyl)ureido)-4-methoxy-4′-(naphthalen-1-yloxy)biphenyl-3-carboxylic acid], the IC50 amounted to 250 nM in experiment [1] and 40 nM in experiment [2].

For the molecule `COc1ccc(-c2ccc(Oc3cccc4ccccc34)c(NC(=O)Nc3cccc(C)c3)c2)cc1C(=O)O` [Example 130, 4-methoxy-4′-(naphthalen-1-yloxy)-3′-(3-m-tolylureido)biphenyl-3-carboxylic acid], the half-maximal inhibitory concentration (IC50) in experiment [1] is 480 nM; in experiment [2] it was 120 nM.

With `COc1ccc(-c2ccc(Oc3cccc4c3OC(C)(C)C4)c(NC(=O)Nc3ccccc3Cl)c2)cc1C(=O)O` [Example 133, 3′-(3-(2-chlorophenyl)ureido)-4′-(2,2-dimethyl-2,3-dihydrobenzofuran-7-yloxy)-4-methoxybiphenyl-3-carboxylic acid], the IC50 in experiment [1] came out at 1830 nM; in experiment [2] it was 590 nM.

With `COc1ccc(-c2ccc(Oc3cccc4c3OC(C)(C)C4)c(NC(=O)Nc3ccccc3C)c2)cc1C(=O)O` [Example 139, 4′-(2,2-dimethyl-2,3-dihydrobenzofuran-7-yloxy)-4-methoxy-3′-(3-o-tolylureido)biphenyl-3-carboxylic acid], the half-inhibitory concentration (IC50) in experiment [1] was 2640 nM; in experiment [2], 680 nM.

On to `COc1ccc(-c2ccc(Oc3cccc4c3OC(C)(C)C4)c(NC(=O)Nc3cccc(C)c3)c2)cc1C(=O)O` [Example 140, 4′-(2,2-dimethyl-2,3-dihydrobenzofuran-7-yloxy)-4-methoxy-3′-(3-m-tolylureido)biphenyl-3-carboxylic acid], for which the half-inhibitory concentration (IC50) in experiment [1] was 3850 nM; in experiment [2], 970 nM.

Take `COc1ccc(-c2ccc(Oc3cccc4c3CCC4)c(NC(=O)Nc3cccc(C)c3)c2)cc1C(=O)O` [Example 144, 4′-(2,3-dihydro-1H-inden-4-yloxy)-4-methoxy-3′-(3-m-tolylureido)biphenyl-3-carboxylic acid]: the IC50 in experiment [1] came to 510 nM; in experiment [2], 150 nM.

`COc1ccc(-c2ccc(Oc3ccc4c(c3)CCCC4)c(NC(=O)Nc3ccccc3C)c2)cc1C(=O)O` [Example 146, 4-methoxy-4′-(5,6,7,8-tetrahydronaphthalen-2-yloxy)-3′-(3-o-tolylureido)biphenyl-3-carboxylic acid]: the half-maximal inhibitory concentration (IC50) in experiment [1] is 580 nM; in experiment [2], 270 nM.

As to `COc1ccc(-c2ccc(Oc3ccc4c(c3)CCCC4)c(NC(=O)Nc3cccc(C)c3)c2)cc1C(=O)O` [Example 147, 4-methoxy-4′-(5,6,7,8-tetrahydronaphthalen-2-yloxy)-3′-(3-m-tolylureido)biphenyl-3-carboxylic acid], the half-inhibitory concentration (IC50) was found to be 1320 nM in experiment [1] and 460 nM in experiment [2].

As to `COc1ccc(-c2ccc(Oc3cccc4c3CCCC4=O)c(NC(=O)Nc3ccccc3Cl)c2)cc1C(=O)O` [Example 149, 3′-(3-(2-chlorophenyl)ureido)-4-methoxy-4′-(5-oxo-5,6,7,8-tetrahydronaphthalen-1-yloxy)biphenyl-3-carboxylic acid], the IC50 in experiment [1] worked out at 2050 nM; in experiment [2], 530 nM.

Take `COc1ccc(-c2ccc(Oc3cccc4c3CCCC4=O)c(NC(=O)Nc3ccccc3C)c2)cc1C(=O)O` [Example 150, 4-methoxy-4′-(5-oxo-5,6,7,8-tetrahydronaphthalen-1-yloxy)-3′-(3-o-tolylureido)biphenyl-3-carboxylic acid]: the IC50 in experiment [1] came out at 7190 nM; in experiment [2] it was 710 nM.

For the molecule `COc1ccc(-c2ccc(Oc3cccc4c3CCCC4)c(NC(=O)Nc3ccc(F)cc3F)c2)cc1C(=O)O` [Example 154, 3′-(3-(2,4-difluorophenyl)ureido)-4-methoxy-4′-(5,6,7,8-tetrahydronaphthalen-1-yloxy)biphenyl-3-carboxylic acid], the IC50 came to 540 nM in experiment [1] and 140 nM in experiment [2].

As to `Cc1ccccc1NC(=O)Nc1cc(-c2ccccc2C(=O)O)ccc1Oc1ccccc1C(C)(C)C` [Example 156, 4′-(2-tert-butylphenoxy)-3′-(3-o-tolylureido)biphenyl-2-carboxylic acid], the IC50 worked out at 680 nM in experiment [1] and 640 nM in experiment [2].

For `Cc1cccc(NC(=O)Nc2cc(-c3ccccc3C(=O)O)ccc2Oc2ccccc2C(C)(C)C)c1` [Example 157, 4′-(2-tert-butylphenoxy)-3′-(3-m-tolylureido)biphenyl-2-carboxylic acid], the figures for the IC50 in experiment [1] and in experiment [2] were 3680 nM and 2120 nM, respectively.

With `CC(C)(C)c1ccccc1Oc1ccc(-c2ccc(Cl)cc2C(=O)O)cc1NC(=O)Nc1ccccc1Cl` [Example 158, 4′-(2-tert-butylphenoxy)-4-chloro-3′-(3-(2-chlorophenyl)ureido)biphenyl-2-carboxylic acid], the IC50 in experiment [1] came out at 4060 nM; in experiment [2], 860 nM.

As to `Cc1ccccc1NC(=O)Nc1cc(-c2ccc(Cl)cc2C(=O)O)ccc1Oc1ccccc1C(C)(C)C` [Example 159, 4′-(2-tert-butylphenoxy)-4-chloro-3′-(3-o-tolylureido)biphenyl-2-carboxylic acid], the IC50 in experiment [1] came out at 3470 nM; in experiment [2], 870 nM.

Take `Cc1ccc(NC(=O)Nc2cc(-c3ccc(Cl)cc3C(=O)O)ccc2Oc2ccccc2C(C)(C)C)cc1` [Example 161, 4′-(2-tert-butylphenoxy)-4-chloro-3′-(3-p-tolylureido)biphenyl-2-carboxylic acid]: the values for the IC50 in experiment [1] and in experiment [2] were 240 nM and 50 nM, respectively.

For the molecule `COc1ccc(-c2ccc(Oc3ccccc3C(C)(C)C)c(NC(=O)Nc3ccccc3C)c2)c(C(=O)O)c1` [Example 162, 4′-(2-tert-butylphenoxy)-4-methoxy-3′-(3-o-tolylureido)biphenyl-2-carboxylic acid], the IC50 was 2240 nM in experiment [1] and 1250 nM in experiment [2].

As for `COc1ccc(-c2ccc(Oc3ccccc3C(C)(C)C)c(NC(=O)Nc3ccc(C)cc3)c2)c(C(=O)O)c1` [Example 163, 4′-(2-tert-butylphenoxy)-4-methoxy-3′-(3-p-tolylureido)biphenyl-2-carboxylic acid], the IC50 in experiment [1] amounted to 470 nM; in experiment [2] it was 160 nM.

As to `COc1ccc(-c2ccc(Oc3ccccc3C(C)(C)C)c(NC(=O)Nc3ccccc3Cl)c2)c(C(=O)O)c1` [Example 164, 4′-(2-tert-butylphenoxy)-3′-(3-(2-chlorophenyl)ureido)-4-methoxybiphenyl-2-carboxylic acid], the concentration for half-maximal inhibition (IC50) in experiment [1] is 330 nM; in experiment [2] it was 280 nM.

As for `COc1cc(C(=O)O)c(-c2ccc(Oc3ccccc3C(C)(C)C)c(NC(=O)Nc3ccc(C)cc3)c2)cc1OC` [Example 165, 4′-(2-tert-butylphenoxy)-4,5-dimethoxy-3′-(3-p-tolylureido)biphenyl-2-carboxylic acid], the IC50 in experiment [1] was 460 nM; in experiment [2] it was 390 nM.

As for `CC(C)(C)c1ccccc1Oc1ccc(-c2cc(Cl)ccc2C(=O)O)cc1NC(=O)Nc1ccccc1Cl` [Example 166, 4′-(2-tert-butylphenoxy)-5-chloro-3′-(3-(2-chlorophenyl)ureido)biphenyl-2-carboxylic acid], the IC50 in experiment [1] turned out to be 3630 nM; in experiment [2], 1300 nM.

Take `Cc1ccccc1NC(=O)Nc1cc(-c2cc(Cl)ccc2C(=O)O)ccc1Oc1ccccc1C(C)(C)C` [Example 167, 4′-(2-tert-butylphenoxy)-5-chloro-3′-(3-o-tolylureido)biphenyl-2-carboxylic acid]: the half-maximal inhibitory concentration (IC50) in experiment [1] worked out at 3810 nM; in experiment [2], 1670 nM.

For `Cc1ccc(NC(=O)Nc2cc(-c3cc(Cl)ccc3C(=O)O)ccc2Oc2ccccc2C(C)(C)C)cc1` [Example 168, 4′-(2-tert-butylphenoxy)-5-chloro-3′-(3-p-tolylureido)biphenyl-2-carboxylic acid], the 50% inhibitory concentration (IC50) in experiment [1] came out at 660 nM; in experiment [2] it was 240 nM.

In the case of `CC(C)(C)c1ccccc1Oc1ccc(-c2ccc(F)cc2C(=O)O)cc1NC(=O)Nc1ccccc1Cl` [Example 169, 4′-(2-tert-butylphenoxy)-3′-(3-(2-chlorophenyl)ureido)-4-fluorobiphenyl-2-carboxylic acid], the IC50 in experiment [1] amounted to 2340 nM; in experiment [2], 660 nM.

Source of the values: patent publication US9765018B2, “IDO inhibitors” (BRISTOL-MYERS SQUIBB COMPANY, priority 2013, dated 2017).
